This is an account of results in patent US9498483B2, “2,3,5-trisubstituted thiophene compounds and uses thereof” (priority 2010, dated 2016).

Assay [1] has as its system HCV replicon I389luc-ubi-neo/NS3-3′/ET in ET (Huh-lucubineo-ET) cells. Kind of assay: Replicon assay (Biological Example 2), luciferase readout. It counts as cell-based. The settings on record: Hepatitis C virus. How it is done: A cell line, ET (Huh-lucubineo-ET) was used for screening of compounds for inhibiting HCV RNA dependent RNA polymerase. The ET cell line was stably transfected with RNA transcripts harboring a I389luc-ubi-neo/NS3-3′/ET; replicon with firefly luciferase-ubiquitin-neomycin phosphotransferase fusion protein and EMCV-IRES driven NS3-5B polyprotein containing the cell culture adaptive mutations (E1202G; T12801; K1846T) (Krieger at al, 2001 and unpublished). The ET cells were grown in DMEM (Dulbeco's Modified Eagle's Medium), supplemented with 10% fetal calf serum, 2 mM Glutamine, Penicillin (100 IU/mL)/Streptomycin (100 μg/mL), 1× nonessential amino acids, and 250 μg/mL G418 (“Geneticin”). Reagents were all available through Life Technologies (Bethesda, Md.). The cells were plated at 0.5-1.0×10^4 cells/well in the 96 well plates and incubated for 24 hrs before adding test compound. The compounds were added to the cells to achieve a final concentration of 0.1 nM to 50 μM and a final DMSO (dimethylsulfoxide) concentration of 0.5%. Luciferase activity was measured 48 hours later by adding a lysis buffer and the substrate (Catalog number Glo-lysis buffer E2661 and Bright-Glo luciferase system E2620 Promega, Madison, Wis.). Cells should not be too confluent during the assay. Percent inhibition of replication data was plotted relative to no compound control. To determine the EC50 (effective concentration at which 50% of the maximum inhibition was observed), a 10 point, 3-fold serial dilution for each compound was used, which spans a concentration range of […]. EC50 values were calculated by fitting % inhibition at each concentration to the following equation: % inhibition=100%/[(EC50/[I])^b+1] where b was Hill's coefficient.
In other aspects the EC50 was equal to or less than 10 μM. In still other aspects the EC50 was equal to or less than 1 μM.
A general note: Replicon systems follow genome replication, usually without infectious particles.

The next assay concerns the target T1, HCV polymerase (Hepatitis C virus genotype 1b, UniProt Q9WMX2).
T1 construct: (His)6 (C); made in house; host or cells: XL-1 cells (E. coli, by own knowledge)
The assay is described as follows: Polymerase assay of Biological Example 1 (IC50 values of Table 3). It counts as biochemical. As to conditions: IC50 values of Table 3, polymerase assay of Biological Example 1; read-out: NS5B-enzyme3. An excerpt:
A number of assays have been published to assess these activities. A general method that assesses the gross increase of HCV virus in culture was disclosed in U.S. Pat. No. 5,738,985 to Miles et al. In vitro assays have been reported in Ferrari et al. Jnl. of Vir., 73:1649-1654, 1999; Ishii et al., Hepatology, 29:1227-1235, 1999; Lohmann et al., Jnl of Bio. Chem., 274:10807-10815, 1999; and Yamashita et al., Jnl. of Bio. Chem., 273:15479-15486, 1998.
WO 97/12033, filed on Sep. 27, 1996, by Emory University, listing C. Hagedorn and A. Reinoldus as inventors, which claims priority to U.S. Provisional Patent Application Ser. No. 60/004,383, filed on September 1995, described an HCV polymerase assay that can be used to evaluate the activity of the of the compounds described herein. Another HCV polymerase assay has been reported by Bartholomeusz, et al., Hepatitis C Virus (HCV) RNA polymerase assay using cloned HCV non-structural proteins; Antiviral Therapy 1996:1 (Supp 4) 18-24.

Where [2] appears, read: ET cells, luciferase activity 48 hours after compound.

pIC50: −log10 of the molar value. A value given as a limit tells only on which side of the number the result lay.

`CCOc1ccc(-c2cc(N3C(=O)CCCC3C3CCCCC3)c(C(=O)O)s2)cc1` (stereo not shown) [Compound 116, 3-(2-Cyclohexyl-6-oxo-piperidin-1-yl)-5-(4-ethoxy-phenyl)-thiophene-2-carboxylic acid]: the pIC50 is 5.30 to 7.00 in assay [1] (between 100 nM and 5.0 uM); 7.19 on HCV polymerase.

Take `O=C(O)c1sc(-c2ccc(Cl)cc2)cc1N1C(=O)CCCC1C1CCCCC1` (stereo not shown) [Compound 73, 5-(4-Chloro-phenyl)-3-(2-cyclohexyl-6-oxo-piperidin-1-yl)-thiophene-2-carboxylic acid]: the pIC50 in assay [1] (between 100 nM and 5.0 uM) is 5.30 to 7.00; on HCV polymerase it was 7.68.

For the compound `N[C@H]1CC(=O)N(c2cc(-c3ccccc3)sc2C(=O)O)[C@H](C2CCCCC2)C1` [Compound 28, 3-((2S,4R)-4-Amino-2-cyclohexyl-6-oxo-piperidin-1-yl)-5-phenyl-thiophene-2-carboxylic acid], the pIC50 was at most 5.30 in assay [1] (setting [2]) and 6.65 at HCV polymerase.

On to `CN(c1ccc(S(=O)(=O)N2CC(=O)N(c3cc(-c4ccccc4)sc3C(=O)O)C(C3CCCCC3)C2)cn1)C1CCCCC1` (stereo not shown) [Compound 91, 3-{2-Cyclohexyl-4-[6-(cyclohexyl-methyl-amino)-pyridine-3-sulfonyl]-6-oxo-piperazin-1-yl}-5-phenyl-thiophene-2-carboxylic acid], for which the pIC50 is at least 7.00 in assay [1] (setting [2]) and 7.92 on HCV polymerase.

`CC(C)(C)OC(=O)N[C@H]1CCN(c2ccc(S(=O)(=O)N3CC(=O)N(c4cc(-c5ccccc5)sc4C(=O)O)[C@H](C4CCCCC4)C3)cn2)C1` [Compound 165, 3-{(R)-4-[6-((S)-3-tert-Butoxycarbonylamino-pyrrolidin-1-yl)-pyridine-3-sulfonyl]-2-cyclohexyl-6-oxo-piperazin-1-yl}-5-phenyl-thiophene-2-carboxylic acid]: the pIC50 was at least 7.00 in assay [1] (setting [2]) and 8.70 at HCV polymerase.

For `O=C(O)c1ccc(-c2ccc(S(=O)(=O)N3CC(=O)N(c4cc(-c5ccccc5)sc4C(=O)O)[C@H](C4CCCCC4)C3)cn2)s1` [Compound 210, 3-{(R)-4-[6-(5-Carboxy-thiophen-2-yl)-pyridine-3-sulfonyl]-2-cyclohexyl-6-oxo-piperazin-1-yl}-5-phenyl-thiophene-2-carboxylic acid], the pIC50 was at most 5.30 in assay [1] (setting [2]) and 8.52 at HCV polymerase.

For the compound `CC(C)(C)C#Cc1cc(N2C(=O)C(CCCO)CC[C@H]2C2CCCCC2)c(C(=O)O)s1` (stereo partly drawn) [Compound 339, 3-[(S)-6-Cyclohexyl-3-(3-hydroxy-propyl)-2-oxo-piperidin-1-yl]-5-(3,3-dimethyl-but-1-ynyl)-thiophene-2-carboxylic acid], the pIC50 in assay [1] (setting [2]) is at least 7.00; at HCV polymerase it was 8.10.

With `O=C(O)c1sc(-c2ccccc2)cc1N1C(=O)CN(S(=O)(=O)c2ccc(-c3ccccc3)cc2)CC1C1CCCCC1` (stereo not shown) [Compound 60, 3-[4-(Biphenyl-4-sulfonyl)-2-cyclohexyl-6-oxo-piperazin-1-yl]-5-phenyl-thiophene-2-carboxylic acid], the pIC50 in assay [1] (between 100 nM and 5.0 uM) was 5.30 to 7.00; at HCV polymerase it was 8.05.

Take `Cc1nccc(-c2cccc(S(=O)(=O)N3CC(=O)N(c4cc(-c5ccccc5)sc4C(=O)O)C(C4CCCCC4)C3)c2)n1` (stereo not shown) [Compound 63, 3-{2-Cyclohexyl-4-[3-(2-methyl-pyrimidin-4-yl)-benzenesulfonyl]-6-oxo-piperazin-1-yl}-5-phenyl-thiophene-2-carboxylic acid]: the pIC50 was 5.30 to 7.00 in assay [1] (between 100 nM and 5.0 uM); 7.38 at HCV polymerase.

For `C[C@@H]1CCCN1c1ccc(S(=O)(=O)N2CC(=O)N(c3cc(-c4ccccc4)sc3C(=O)O)[C@H](C3CCCCC3)C2)cn1` [Compound 130, 3-{(R)-2-Cyclohexyl-4-[6-((R)-2-methyl-pyrrolidin-1-yl)-pyridine-3-sulfonyl]-6-oxo-piperazin-1-yl}-5-phenyl-thiophene-2-carboxylic acid], the pIC50 in assay [1] (setting [2]) is at least 7.00; on HCV polymerase, 9.00.

Take `CC(C)(C)C#Cc1cc(N2C(=O)CN(S(=O)(=O)c3cccc(Cl)c3)C[C@H]2C2CCCCC2)c(C(=O)O)s1` [Compound 242, 3-[(R)-4-(3-Chlorobenzenesulfonyl)-2-cyclohexyl-6-oxo-piperazin-1-yl]-5-(3,3-dimethyl-but-1-ynyl)-thiophene-2-carboxylic acid]: the pIC50 in assay [1] (between 100 nM and 5.0 uM) was 5.30 to 7.00; on HCV polymerase, 8.30.

As for `Cn1nccc1S(=O)(=O)N1CC(=O)N(c2cc(C#CC(C)(C)C)sc2C(=O)O)[C@H](C2CCCCC2)C1` [Compound 254, 3-[(R)-2-Cyclohexyl-4-(2-methyl-2H-pyrazole-3-sulfonyl)-6-oxo-piperazin-1-yl]-5-(3,3-dimethyl-but-1-ynyl)-thiophene-2-carboxylic acid], the pIC50 in assay [1] (between 100 nM and 5.0 uM) is 5.30 to 7.00; at HCV polymerase, 7.82.

Consider `O=C(O)c1sc(-c2ccccc2)cc1N1C(=O)CN(S(=O)(=O)c2ccc(NC3CCCCC3)nc2)CC1C1CCCCC1` (stereo not shown) [Compound 75, 3-[2-Cyclohexyl-4-(6-cyclohexylamino-pyridine-3-sulfonyl)-6-oxo-piperazin-1-yl]-5-phenyl-thiophene-2-carboxylic acid], for which the values for the pIC50 (in assay [1] (setting [2]); at HCV polymerase) were at least 7.00 and 8.10, respectively.

For the compound `CNC(=O)c1ccc(S(=O)(=O)N2CC(=O)N(c3cc(-c4ccccc4)sc3C(=O)O)C(C3CCCCC3)C2)cc1` (stereo not shown) [Compound 98, 3-[2-Cyclohexyl-4-(4-methylcarbamoyl-benzenesulfonyl)-6-oxo-piperazin-1-yl]-5-phenyl-thiophene-2-carboxylic acid], the pIC50 was 5.30 to 7.00 in assay [1] (between 100 nM and 5.0 uM); 8.52 at HCV polymerase.

In the case of `O=C(O)c1sc(-c2ccccc2)cc1N1C(=O)CN(Cc2ccc(N3CCCC3=O)cc2)C[C@H]1C1CCCCC1` [Compound 262, 3-{(R)-2-Cyclohexyl-6-oxo-4-[4-(2-oxo-pyrrolidin-1-yl)-benzyl]-piperazin-1-yl}-5-phenyl-thiophene-2-carboxylic acid], the pIC50 was 5.30 to 7.00 in assay [1] (between 100 nM and 5.0 uM); 7.60 at HCV polymerase.

As to `COCCNc1ccc(S(=O)(=O)N2CC(=O)N(c3cc(-c4ccccc4)sc3C(=O)O)C(C3CCCCC3)C2)cn1` (stereo not shown) [Compound 78, 3-{2-Cyclohexyl-4-[6-(2-methoxy-ethylamino)-pyridine-3-sulfonyl]-6-oxo-piperazin-1-yl}-5-phenyl-thiophene-2-carboxylic acid], the pIC50 in assay [1] (setting [2]) was at least 7.00; at HCV polymerase, 8.30.

As for `Cc1ccc(-c2cc(N3C(=O)CN(S(=O)(=O)c4ccc(N5CCCOCC5)nc4)C[C@H]3C3CCCCC3)c(C(=O)O)s2)cc1` [Compound 188, 3-[(R)-2-Cyclohexyl-4-(6-[1,4]oxazepan-4-yl-pyridine-3-sulfonyl)-6-oxo-piperazin-1-yl]-5-p-tolyl-thiophene-2-carboxylic acid], the results for the pIC50 (in assay [1] (setting [2]); on HCV polymerase) were at least 7.00 and 9.00, respectively.

Turning to `C[C@H]1CCCN1c1ccc(S(=O)(=O)N2CC(=O)N(c3cc(-c4ccccc4)sc3C(=O)O)C(C3CCCCC3)C2)cn1` (stereo partly drawn) [Compound 119, 3-{2-Cyclohexyl-4-[6-((S)-2-methyl-pyrrolidin-1-yl)-pyridine-3-sulfonyl]-6-oxo-piperazin-1-yl}-5-phenyl-thiophene-2-carboxylic acid], the results for the pIC50 (in assay [1] (setting [2]); at HCV polymerase) were at least 7.00 and 8.05, respectively.

With `C[C@@H]1COCCN1c1ccc(S(=O)(=O)N2CC(=O)N(c3cc(-c4ccc(Cl)cc4)sc3C(=O)O)[C@H](C3CCCCC3)C2)cn1` [Compound 226, 5-(4-Chloro-phenyl)-3-{(R)-2-cyclohexyl-4-[6-((R)-3-methyl-morpholin-4-yl)-pyridine-3-sulfonyl]-6-oxo-piperazin-1-yl}-thiophene-2-carboxylic acid], the figures for the pIC50 (in assay [1] (setting [2]); at HCV polymerase) were at least 7.00 and 8.05, respectively.

Regarding `COc1ccccc1S(=O)(=O)N1CC(=O)N(c2cc(C#CC(C)(C)C)sc2C(=O)O)[C@H](C2CCCCC2)C1` [Compound 258, 3-[(R)-2-Cyclohexyl-4-(2-methoxy-benzenesulfonyl)-6-oxo-piperazin-1-yl]-5-(3,3-dimethyl-but-1-ynyl)-thiophene-2-carboxylic acid], the pIC50 was at least 7.00 in assay [1] (setting [2]) and 8.15 at HCV polymerase.
